The test system of assay [1] is TNF-α. As to the kind of experiment: hPBMC membrane-monocyte contact bioassay: TNF-α. Type of assay: cell-based, human. The conditions noted are these: activated hPBMC membranes, 24 h. The source says: The assay was designed as in reference, Immunology Letters, 117, 114-118, (2008), the disclosure of which is incorporated by reference for the teaching of the assay. Activated T cell contact-mediated monocyte activation, leading to the production of proinflammatory cytokines (e.g., TNF-α, IL-6), contributes to the pathogenesis of chronic inflammatory diseases including rheumatoid arthritis.
6-well plates (Nunc, USA) were coated with Goat anti-Mouse IgG, Fc (Chemicon, USA) at a concentration of 16.5 μL/mL in coating buffer ([…] NaHCO3, 3.56 g Na2CO3, pH 9.5).
The plates were incubated overnight at 4° C. under sterile conditions. […]
Following incubation, hPBMCs in separate wells of the 6-well plate were harvested, pooled together, and centrifuged. […] The pellet of hPBMC membranes was resuspended in lysis buffer (Sigma, USA) and the protein concentration was determined by the method of Bradford (Sigma, USA).
100 μL monocytes per well at 5×10^5 cells/mL were added to the 96-well plate (Nunc, USA) and cultured for 48 h at 37° C. […] Supernatants were collected after 24 h and TNF-α and IL-6 production was measured using OptiEIA ELISA sets, (BD BioSciences, USA). […]

For assay [2], the system named is TNF-α. As to the kind of experiment: Synovial tissue assay (spontaneous production): TNF-α. In kind it is cell-based. The following applies: Homo sapiens, synovial tissue cells from rheumatoid arthritis patients, 16 h, read-out: IC50 of TNF-α inhibition. The source says:
The ability of compounds of the present invention to inhibit spontaneous production of cytokines from freshly isolated human synovial tissue cells was designed as in reference, Lancet, 29, 244-247, (1989) the disclosure of which is incorporated by reference for the teaching of the assay.
Synovial tissue was obtained from rheumatoid arthritis patients undergoing knee replacement surgery. […] Subsequently, the cells were washed 3 times with RPMI 1640 culture medium and resuspended in complete medium (RPMI 1640 culture medium supplemented with 5% FBS and 5% human serum-AB+(Sigma, USA) at a concentration of 1×10^6 cells/mL. The viability of synovial cells was determined by trypan blue dye exclusion and was uniformly ≧98%. For the experiment, 100 μL of cell suspension was added to the wells of a 96-well culture plate (Nunc, USA). Following cell plating, 100 μL of the culture medium and 1 μL of various concentrations of the test compound (test compound was dissolved in DMSO to obtain a stock solution of 20 mM. […] The IC50 values were calculated by a nonlinear regression method using the GraphPad software (Prism 3.03).

Each structure is given as a SMILES string. pIC50: −log10 of the molar value.

As usually defined, the pIC50 is the IC50 on a negative log10 scale, so that one unit is a factor of ten. As to `C/C=C/C(O)C(C)/C=C/C(=N\O)C(C)C(O)C(C)C1OC(=O)/C(OC)=C/C(C)=C/C(C)C(O)C(CC)C(O)C(C)C/C(C)=C/C=C/C1OC` (centres unmarked) [Compound of example 7, (3Z,5E,13E,15E)-18-((5Z,6E,10E)-3,9-Dihydroxy-5-(hydroxymino)-4,8-dimethyldodeca-6,10-dien-2-yl)-9-ethyl-8,10-dihydroxy-3,17-dimethoxy-5,7,11,13-tetramethyl oxacyclooctadeca-3,5,13,15-tetraen-2-one], the “inhibition of TNF-α production from monocytes” value in the assay with TNF-α [1] is on record as “did not inhibit”. For the same compound, in the assay on TNF-α [2], the pIC50 was 4.72.

(Values after patent publication US20120225889A1, “USE OF MACROCYCLIC LACTONE DERIVATIVES FOR THE TREATMENT OF INFLAMMATORY DISORDERS” (PIRAMAL LIFE SCIENCES LIMITED, priority 2010, published 2012).)
